Test results reported in patent US11820766B2, “Monoacylglycerol lipase modulators” (Janssen Pharmaceutica NV, priority 2018, dated 2023).
Where a name gives a salt, the structure may show the parent alone.

Biological target: T1, human MGL from HeLa cells (Homo sapiens, UniProt Q99685)
T1 construct: combining endogenously expressed MGL from HeLa cells with test compounds; endogenous in cells; host or cells: HeLa cells / cell homogenates
T1 sequence (Q99685 1-303): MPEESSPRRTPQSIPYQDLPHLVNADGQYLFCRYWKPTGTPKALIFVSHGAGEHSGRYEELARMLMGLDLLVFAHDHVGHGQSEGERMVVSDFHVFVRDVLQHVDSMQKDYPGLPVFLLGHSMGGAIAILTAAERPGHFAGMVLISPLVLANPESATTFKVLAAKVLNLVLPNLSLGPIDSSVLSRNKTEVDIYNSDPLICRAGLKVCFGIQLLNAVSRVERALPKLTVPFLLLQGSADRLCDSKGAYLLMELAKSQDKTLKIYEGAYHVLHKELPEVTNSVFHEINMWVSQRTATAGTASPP
Experiment: In vitro MGL activity assay: [glycerol-1,3-3H]-oleyl glycerol cleavage by MGL from HeLa cells
Format: biochemical
Conditions: 300 nM [Glycerol-1,3-3H]-oleyl glycerol, one hour
From the text: MGL is the predominant hydrolase in HeLa cells/cell homogenates.

Row | Compound | IC50 [nM]
1 | Cc1nn2c(c1C(=O)N1CCc3c(nn(C)c3-c3cc(F)c(F)c(F)c3)[C@@H]1C)COC(C)(C)C2 [Example 556, [(7S)-2,7-Dimethyl-3-(3,4,5-trifluorophenyl)-5,7-dihydro-4H-pyrazolo[3,4-c]pyridin-6-yl]-(2,6,6-trimethyl-4,7-dihydropyrazolo[5,1-c][1,4]oxazin-3-yl)methanone] | 803
2 | Cc1cc(C)n2ccc(C(=O)N3CCc4c(nn(C)c4-c4cc(F)c(F)c(F)c4)[C@@H]3C)c2n1 [Example 417, (2,4-Dimethylpyrrolo[1,2-a]pyrimidin-8-yl)-[(7S)-2,7-dimethyl-3-(3,4,5-trifluorophenyl)-5,7-dihydro-4H-pyrazolo[3,4-c]pyridin-6-yl] methanone] | 126
3 | Cc1cc(C(=O)N2CCc3c(nn(C)c3-c3cc(F)c(F)c(F)c3)[C@@H]2C)n2ncnc2n1 [Example 472, [(7S)-2,7-Dimethyl-3-(3,4,5-trifluorophenyl)-5,7-dihydro-4H-pyrazolo[3,4-c]pyridin-6-yl]-(5-methyl-[1,2,4]triazolo[1,5-a]pyrimidin-7-yl)methanone] | 1560
4 | C[C@H]1c2nn(C)c(-c3cc(F)c(F)c(F)c3)c2CCN1C(=O)c1nc(-c2ccccc2)cn1C [Example 600, [(7S)-2,7-Dimethyl-3-(3,4,5-trifluorophenyl)-5,7-dihydro-4H-pyrazolo[3,4-c]pyridin-6-yl]-(1-methyl-4-phenyl-imidazol-2-yl)methanone] | 110
5 | C[C@H]1c2nn(C)c(-c3cc(F)c(F)c(F)c3)c2CCN1C(=O)c1cnn2ccccc12 [Example 381, [(7S)-2,7-Dimethyl-3-(3,4,5-trifluorophenyl)-5,7-dihydro-4H-pyrazolo[3,4-c]pyridin-6-yl]-pyrazolo[1,5-a]pyridin-3-yl-methanone.TFA salt] | 10.7
6 | COc1cc(Cl)cc(-c2c3c(nn2C)[C@H](C)N(C(=O)c2ccc4ncccc4c2)CC3)c1 [Example 513, [(7S)-3-(3-Chloro-5-methoxy-phenyl)-2,7-dimethyl-5,7-dihydro-4H-pyrazolo[3,4-c]pyridin-6-yl]-(6-quinolyl)methanone] | 10.5
7 | C[C@H]1c2nn(C)c(-c3cc(F)c(F)c(F)c3)c2CCN1C(=O)c1ccc2c(ccc[n+]2[O-])c1 [Example 516, [(7S)-2,7-Dimethyl-3-(3,4,5-trifluorophenyl)-5,7-dihydro-4H-pyrazolo[3,4-c]pyridin-6-yl]-(1-oxidoquinolin-1-ium-6-yl)methanone] | 141
8 | C[C@H]1c2nn(C)c(-c3cc(F)c(F)c(F)c3)c2CCN1C(=O)c1ccnc2c1CCCO2 [Example 564, 3,4-Dihydro-2H-pyrano[2,3-b]pyridin-5-yl-[(7S)-2,7-dimethyl-3-(3,4,5-trifluorophenyl)-5,7-dihydro-4H-pyrazolo[3,4-c]pyridin-6-yl]methanone] | 58.7
9 | Cc1nc2c(C)cc(F)cn2c1C(=O)N1CCc2c(nn(C)c2-c2cc(F)c(F)c(F)c2)[C@@H]1C [Example 408, [(7S)-2,7-Dimethyl-3-(3,4,5-trifluorophenyl)-5,7-dihydro-4H-pyrazolo[3,4-c]pyridin-6-yl]-(6-fluoro-2,8-dimethyl-imidazo[1,2-a]pyridin-3-yl)methanone] | 27
10 | C[C@H]1c2nn(C)c(-c3cc(F)c(F)c(F)c3)c2CCN1C(=O)c1n[nH]c2ncc(F)cc12 [Example 428, [(7S)-2,7-Dimethyl-3-(3,4,5-trifluorophenyl)-5,7-dihydro-4H-pyrazolo[3,4-c]pyridin-6-yl]-(5-fluoro-1H-pyrazolo[3,4-b]pyridin-3-yl)methanone.TFA salt] | 23

Same assay, conditions: 300 nM [Glycerol-1,3-3H]-oleyl glycerol, one hour incubation

Row | Compound | IC50 [nM]
11 | Cn1nc2c(c1-c1ccccc1)CCN(C(=O)c1noc3ccccc13)C2 [Example 53, Benzo[d]isoxazol-3-yl(2-methyl-3-phenyl-2,4,5,7-tetrahydro-6H-pyrazolo[3,4-c]pyridin-6-yl)methanone] | 32.2
12 | COc1cc(C(=O)N2CCc3c(nn(C)c3-c3cc(F)c(F)c(F)c3)[C@@H]2C)cc(-n2cnnc2)c1 [Example 298, [(7S)-2,7-Dimethyl-3-(3,4,5-trifluorophenyl)-5,7-dihydro-4H-pyrazolo[3,4-c]pyridin-6-yl]-[3-methoxy-5-(1,2,4-triazol-4-yl)phenyl]methanone] | 18.7
13 | Cc1cc(C(=O)N2CCc3c(nn(C)c3-c3cc(F)c(F)c(F)c3)[C@@H]2C)cc2cn[nH]c12 [Example 210, (S)-(2,7-Dimethyl-3-(3,4,5-trifluorophenyl)-2,4,5,7-tetrahydro-6H-pyrazolo[3,4-c]pyridin-6-yl)(7-methyl-1H-indazol-5-yl)methanone] | 0.6
14 | C[C@H]1c2nn(C)c(-c3cc(F)cc(F)c3)c2CCN1C(=O)c1ccc2ncc(C(F)(F)F)cc2c1 [Example 165, (S)-(3-(3,5-Difluorophenyl)-2,7-dimethyl-2,4,5,7-tetrahydro-6H-pyrazolo[3,4-c]pyridin-6-yl)(3-(trifluoromethyl)quinolin-6-yl)methanone] | 103
15 | Cn1nc2c(c1-c1ccccc1)CCN(C(=O)c1ccccc1-n1cncn1)C2 [Example 18, (2-(1H-1,2,4-Triazol-1-yl)phenyl)(2-methyl-3-phenyl-2,4,5,7-tetrahydro-6H-pyrazolo[3,4-c]pyridin-6-yl)methanone] | 671
16 | C[C@H]1c2nn(C)c(-c3cc(F)c(F)c(F)c3)c2CCN1C(=O)c1nccc2occc12 [Example 214, (S)-(2,7-Dimethyl-3-(3,4,5-trifluorophenyl)-2,4,5,7-tetrahydro-6H-pyrazolo[3,4-c]pyridin-6-yl)(furo[3,2-c]pyridin-4-yl)methanone] | 23.5
17 | Cn1nc2c(c1-c1ccccc1)CCN(C(=O)c1cccc3nccn13)C2 [Example 80, Imidazo[1,2-a]pyridin-5-yl(2-methyl-3-phenyl-2,4,5,7-tetrahydro-6H-pyrazolo[3,4-c]pyridin-6-yl)methanone] | 2330
18 | Cn1nc2c(c1-c1ccccc1)CCN(C(=O)c1ccc3ccccc3n1)C2 [Example 94, (2-Methyl-3-phenyl-2,4,5,7-tetrahydro-6H-pyrazolo[3,4-c]pyridin-6-yl)(quinolin-2-yl)methanone] | 282
19 | C[C@H]1c2nn(C)c(-c3cc(F)c(F)c(F)c3)c2CCN1C(=O)c1cnc2c(ccn2C)c1 [Example 226, (S)-(2,7-Dimethyl-3-(3,4,5-trifluorophenyl)-2,4,5,7-tetrahydro-6H-pyrazolo[3,4-c]pyridin-6-yl)(1-methyl-1H-pyrrolo[2,3-b]pyridin-5-yl)methanone] | 16.2
20 | Cn1nc2c(c1-c1ccccc1)CCN(C(=O)c1cccc3cn[nH]c13)C2 [Example 67, (1H-Indazol-7-yl)(2-methyl-3-phenyl-2,4,5,7-tetrahydro-6H-pyrazolo[3,4-c]pyridin-6-yl)methanone] | 1630
21 | Cn1nc2c(c1-c1ccccc1)CCN(C(=O)c1n[nH]c3ccccc13)C2 [Example 66, (1H-Indazol-3-yl)(2-methyl-3-phenyl-2,4,5,7-tetrahydro-6H-pyrazolo[3,4-c]pyridin-6-yl)methanone] | 300
22 | CC1c2nn(C)c(-c3cc4ccccc4n3C)c2CCN1C(=O)c1ccc2ncccc2c1 (stereo not shown) [Example 250, (2,7-Dimethyl-3-(1-methyl-1H-indol-2-yl)-2,4,5,7-tetrahydro-6H-pyrazolo[3,4-c]pyridin-6-yl)(quinolin-6-yl)methanone] | 206
